These results are taken from BindingDB's records for patent US8748618 (University of Virginia Patent Foundation, 2014).

The assay concerns the target T1, Core-binding factor subunit beta (Homo sapiens, UniProt Q13951).
T1 sequence (Q13951 whole entry): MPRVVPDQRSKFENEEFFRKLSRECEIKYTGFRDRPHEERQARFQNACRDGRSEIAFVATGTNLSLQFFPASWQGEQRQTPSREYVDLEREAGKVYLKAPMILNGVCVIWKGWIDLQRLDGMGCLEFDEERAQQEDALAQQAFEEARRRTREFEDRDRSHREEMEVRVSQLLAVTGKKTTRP
Description: FRET Assay.
Description: We have developed effective assays to monitor the inhibition of CBFβ-SMMHC binding to the Runt domain (as well as for CBFβ binding to the Runt domain). […] The ratio of the emission intensities at 525 nm and 474 nm, measured after excitation at 433 nm, was used as the readout in this assay.
`CCOc1cccc2[nH]c(-c3ccccn3)nc12` [US8748618, AI-4-42]: the IC50 worked out at 4200 nM.

In turn, `Fc1cc2[nH]c(-c3ccccn3)nc2c(F)c1F` [US8748618, AI-4-43] gave an IC50 of 1400 nM.

The compound `Cc1cccc2[nH]c(-c3ccccn3)nc12` [US8748618, AI-4-46] gave an IC50 of 5300 nM.

Regarding `FC(F)(F)c1cc(Cl)c2[nH]c(-c3ccccn3)nc2c1` [US8748618, AI-4-48], the IC50 stood at 760 nM.

`Clc1cc(Cl)c2nc(-c3ccccn3)[nH]c2c1` [US8748618, AI-4-49] showed a 50% inhibitory concentration (IC50) of 700 nM.

Regarding `COc1cccc2[nH]c(-c3ccccn3)nc12` [US8748618, AI-4-52], the IC50 was 5500 nM.

`CC(C)Oc1ccc2[nH]c(-c3ccccn3)nc2c1` [US8748618, AI-4-70 (or) LD-2-21] yielded an IC50 of 1400 nM.

The compound `c1ccc(-c2nc3ccc(N4CCOCC4)cc3[nH]2)nc1` [US8748618, AI-10-3] registered a half-inhibitory concentration (IC50) of 1000 nM.

Take `CS(=O)(=O)c1ccc2nc(-c3ccccn3)[nH]c2c1` [US8748618, AI-10-37]: the 50% inhibitory concentration (IC50) stood at 3300 nM.

`FC(F)(F)Oc1ccc2[nH]c(-c3ccccn3)nc2c1` [US8748618, AI-10-47] gave an IC50 of 1000 nM.

For `Oc1ccc2nc(-c3ccccn3)[nH]c2c1` [US8748618, AI-10-61], the IC50 came to 2500 nM.

On to `Fc1cccnc1-c1nc2ccc(OC(F)(F)F)cc2[nH]1` [US8748618, AI-10-65], for which the IC50 was 22000 nM.

For the compound `COCCOc1ccc(-c2nc3ccc(OC(F)(F)F)cc3[nH]2)nc1` [US8748618, AI-10-87], the IC50 came to 2300 nM.

In the case of `c1ccc(-c2nc3cc(-n4ccnc4)ccc3[nH]2)nc1` [US8748618, AI-10-88], the IC50 is 3400 nM.

As for `Cc1ccc2[nH]c(-c3ccccn3)nc2c1C` [US8748618, LD-1-23], the IC50 came out at 4300 nM.

Compound `CCOc1ccc2[nH]c(-c3ccccn3)nc2c1` [US8748618, LD-1-29 (or) AI-10-54] registered an IC50 of 1500 nM.

Regarding `Fc1ccc2[nH]c(-c3ccccn3)nc2c1` [US8748618, LD-1-31], the half-inhibitory concentration (IC50) stood at 2500 nM.

For `Fc1cc2nc(-c3ccccn3)[nH]c2cc1F` [US8748618, LD-1-33], the IC50 turned out to be 2500 nM.

As for `Cc1cc2nc(-c3ccccn3)[nH]c2cc1C` [US8748618, LD-1-37], the IC50 is 2000 nM.

`Cc1ccc2[nH]c(-c3ccccn3)nc2c1` [US8748618, LD-2-11] gave an IC50 of 2900 nM.

For the compound `FC(F)(F)c1ccc2[nH]c(-c3ccccn3)nc2c1` [US8748618, LD-2-23], the IC50 turned out to be 1100 nM.

In turn, `Clc1ccc2nc(-c3ccccn3)[nH]c2c1` [US8748618, LD-2-79] gave an IC50 of 2300 nM.
